{"source": "patent US12473332B2", "about": "“Modified peptides and associated methods of use” (Advanced Technologies For Novel Therapeutics, LLC, priority 2019, dated 2025)", "key": {"PKAc": {"molecular_target": "PKAc (Homo sapiens, UniProt P17612)", "test": "independent kinase assays on PKAc catalytic activity", "format": "biochemical"}, "p70S6K [1]": {"molecular_target": "T1, p70S6K (Homo sapiens, UniProt P23443)", "T1 construct": "phosphorylation levels of well-known intracellular substrates for each kinase; endogenous in cells", "test": "cell-based kinase assay, phosphorylation of intracellular substrates", "description": "To test the specificity/selectivity of ZaTa as the inhibitor of AKT1 versus the other major kinases, a series of in vitro kinase assays was performed at IC50 for AKT1 and at ten times higher concentrations. A panel of the following 32 kinases was first tested in vitro using the active form of each kinase and a specific substrate: AKT2, AKT3, PKA, PKCα, PKCγ, PI3Kβ, PI3Kδ, PI3Kγ, SGK, PAK2, PAK3, SAPK2/p38, Abl, CaMKII, CDK1/cyclinB, CDK5/p35, CK1, CK2, CSK, GSK3α, GSK3β, JNK1α1, MAPK1, p70S6K, PDGFRα, PDGFRβ, PDK1, PKG1α, TrkB, JAK2, JAK3, and Syk. […] However, at ten times higher concentration, ZaTa inhibited AKT2 (63%), PI3Kδ (72%), p70S6K (64%), SGK (73%), PAK3 (83%), JAK3 (79%), TrkB (84%), and Abl (42%). To confirm the in vitro inhibitory effect on these kinases in cells, a cell-based assay was used to determine the effect of labeled ZaTa on the phosphorylation levels of well-known intracellular substrates for each kinase (Zipfel, et al. (2004) Curr. Biol. 14:1222-1231; Wang, et al. (2003) Arch. Biochem. Biophys. 410:7-15; King, et al. (1998) Nature 396:180-183; Rangone, et al. (2004)Eur. J. Neurosci. 19:273-279; Middlemas, et al. (1994)J. Biol. Chem. 269:5458-5466; Huang, et al. (1999) J. Biol. Chem. 274:7870-7878). The results of this cell-based kinase assay confirmed that ZaTa could inhibit p70S6K besides AKT. […]"}, "AKT": {"molecular_target": "T2, AKT (Mus musculus, UniProt P31750)", "T2 construct": "from tissue; host or cells: brain striatum, in vivo", "test": "stereotactic injection into brain striatum, phosphorylation of AKT substrates", "format": "in vivo", "settings": "vs DMSO hemisphere", "description": "After the stereotactic injection of ZaTa peptide, a decrease in the phosphorylation level of AKT substrates in the striatum of a brain hemisphere was observed as compared to the other hemisphere that was injected with DMSO as the vehicle. […] As a specific substrate, the phosphorylation level of GSK-3β at Ser-9 was also evaluated. […] The decrease was specific to the AKT phosphorylation site on GSK-3β at Ser-9, since a change in the phosphorylation level of GSK-3β at Tyr-216 or GSK-3α at Tyr-279 was not observed. Moreover, the in vivo reduction of the phosphorylation of AKT substrates was more obvious at the injection site, since a significant change in the phosphorylation of AKT substrates in the frontal cortex or cerebellum between the two hemispheres was not observed.\nThe phenotypic consequence of disrupting the AKT-PKAc complex was also determined. ZaTa peptide was injected into the striatum of one hemisphere of the brain and DMSO, as vehicle, was injected into the other brain hemisphere of an adult C57BL/6 mouse under anesthesia. The brain was removed and dissected. Equal protein amounts from each hemisphere were subjected to immunoprecipitation by an anti-AKT antibody. […] To compare PKAc protein levels in the ZaTa- and vehicle-treated brain hemisphere lysates, western blot analysis was conducted."}, "Abl": {"molecular_target": "T3, Abl (Mus musculus, UniProt P00520)", "T3 construct": "from tissue; host or cells: brain hemisphere, in vivo", "test": "stereotactic injection into brain, western blot with phospho-specific antibodies", "format": "in vivo", "settings": "vs DMSO hemisphere", "description": "(§1) To analyze in vivo selectivity, ZaTa was injected into one hemisphere and DMSO in the other hemisphere, as above, and a series of western blot analyses was performed with phospho-specific antibodies which recognize a phosphorylated substrate or each one of the kinases that ZaTa inhibited at higher concentrations in vitro. […] Given the high functional and structural homology between p70S6K and AKT, the in vivo inhibitory effect of ZaTa on p70S6K was contemplated. Furthermore, the in vivo effect of ZaTa on the phosphorylation levels of substrates for PKA, PKC, CDKs using phospho-specific antibodies recognizing the phosphorylated consensus sites of these kinases was analyzed."}, "p70S6K [2]": {"molecular_target": "T4, p70S6K (Mus musculus, UniProt Q8BSK8)", "T4 construct": "from tissue; host or cells: brain hemisphere, in vivo", "test": "stereotactic injection into brain, western blot with phospho-specific antibodies", "format": "in vivo", "settings": "vs DMSO hemisphere", "description": "as §1"}, "PKA, PKC, CDKs": {"system": "PKA, PKC, CDKs", "test": "stereotactic injection into brain, phosphorylation of PKA, PKC and CDKs substrates", "set-up": "species or system mouse", "description": "as §1\nAs a striatal specific substrate for PKA and CDK5, the phosphorylation level of DARPP-32 was determined at Thr-34 (the PKA site) or at Thr-75 (the CDK5 site) (Huang, et al. (1999) supra)."}, "N2a cells": {"system": "N2a cells", "test": "MTT-based proliferation assay", "format": "cell-based", "description": "AKT affects a network that positively regulates G1/S cell cycle progression through several mechanisms that involve the expression and subcellular localization of the CDK inhibitor p27^Kip1 (Blain and Massague (2002) Nat. Med. 8:1076-1078; Liang, et al. (2002) supra; Shin, et al. (2002) supra; Viglietto, et al. (2002) supra). Based on these studies, the effect of ZaTa peptide on cell proliferation was assessed. […] Capturing live images of cultured N2a cells in the presence of different concentrations of the ZaTa peptide confirmed an obvious reduction in the number of dividing cells.\nBased on the importance of the C-terminal arm of ZaTa for its inhibitory action on AKT, it was determined whether the free hydroxyl groups on residues Thr-8, Thr-10 (equivalent to Thr-197 in full-length PKAc), Thr-14 and Tyr-17 were important for the biological activity of this peptide. Mutants of ZaTa peptide were synthesized by replacing Thr-8 or Thr-10 residues with Asp (ZaTa^T8D and ZaTa^T10D, respectively) as an amino acid with a negatively charged side chain. Mutants of ZaTa with the hydrophilic positively charged amino acid Arg at either position Thr-14 or Tyr-17 (ZaTa^T14R and ZaTa^Y17R, respectively) were also synthesized. […] The inhibitory effect of ZaTa peptide on cell proliferation was reversible, to a large extent, after the removal of ZaTa treatment."}, "[3]": {"test": "trypan blue staining, live and dead cell count", "format": "cell-based", "settings": "12 to 72 hours", "source_text": "Therefore, in addition to capturing live images, cells were stained with trypan blue at different time intervals following treatment with ZaTa and counted by a light microscope using a hemocytometer."}}, "note": "Where no end group is shown, it is not given here."}
{"sequence": "AKRVKGRTWTLCGTPEY [Peptide 53, A-K-R-V-K-G-R-T-W-T-L-C-G-T-P-E-Y]", "values": [{"measurement": "inhibitory effect on catalytic activity of PKAc", "setting": "PKAc", "result": "did not exhibit any inhibitory effect"}, {"measurement": "inhibition of p70S6K in cells", "setting": "p70S6K [1]", "result": "could inhibit"}, {"measurement": "phosphorylation level of AKT substrates in vivo", "setting": "AKT; one hour after stereotactic injection", "result": "significant decrease in the phosphorylation level of AKT substrates"}, {"measurement": "phosphorylation level of GSK-3β at Ser-9 in vivo", "setting": "AKT; stereotactic injection", "result": "specific reduction"}, {"measurement": "in vivo inhibition of Abl", "setting": "Abl", "result": "weaker in vivo inhibition"}, {"measurement": "in vivo inhibition of p70S6K", "setting": "p70S6K [2]", "result": "potent in vivo inhibition"}, {"measurement": "phosphorylation level of PKA, PKC and CDKs substrates in vivo", "setting": "PKA, PKC, CDKs", "result": "significant changes in the phosphorylation level of PKA, PKC and CDKs substrates was not observed"}, {"measurement": "number of live cells after removal of treatment (reversibility)", "setting": "N2a cells; 24 hours after removal of 10 μM, vs DMSO vehicle", "result": "no significant differences in the number of live cells"}, {"measurement": "number of live cells", "setting": "N2a cells; MTT", "result": "dose-dependent decrease in the number of live cells"}, {"measurement": "dose causing a significant decrease in the number of live cells", "setting": "N2a cells; doses as low as", "result": 2, "unit": "µM"}, {"measurement": "number of dead cells", "setting": "[3]", "result": "a significant increase in the number of dead cells was not seen"}]}
